For experiment [1], the system named is AMARE. Kind of experiment: Pre-emergence herbicidal action against AMARE. The experiment is classed as in vivo, Amaranthus retroflexus. In outline: (§1)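 Greenhouse pots of sandy loam held seeds covered with soil, onto which the compound was applied before emergence. An aqueous suspension or emulsion of WP or EC was used at 600 to 800 l/ha with 0.2% wetting agent. Percent damage was judged visually at 3 weeks.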

For a further experiment, the system named is PHBPU. Put plainly: Post-emergence herbicidal action against PHBPU. The experiment is classed as in vivo, Pharbitis purpurea. The procedure, abridged:
(§2)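 Foliar application at one-leaf stage of formulated test compounds, aqueous spray at 600–800 l/ha with 0.2% wetting agent. Greenhouse, optimal conditions, ~3 weeks; damage scored visually in % relative to untreated plants.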

The subject of experiment [2] is AMARE. Put plainly: Post-emergence herbicidal action against AMARE. The settings on record: 20 g/ha, visual assessment about 3 weeks after treatment, 100% = plants have died, 0% = like control plants. The experiment is classed as in vivo, Amaranthus retroflexus. The procedure, abridged: as §2
For experiment [3], the system named is ECHCG. Kind of experiment: Pre-emergence herbicidal action against ECHCG. The experiment is classed as in vivo, Echinochloa crus-galli. The settings on record: 80 g/ha. The procedure, abridged: as §1
Experiment [4] has as its system ABUTH. Kind of experiment: Pre-emergence herbicidal action against ABUTH. The experiment is classed as in vivo, Abutilon theophrasti. The procedure, abridged: as §1
The next experiment concerns MATIN. Kind of experiment: Pre-emergence herbicidal action against MATIN. The experiment is classed as in vivo, Matricaria inodora. In outline: as §1
Experiment [5] relates to ABUTH. Kind of experiment: Post-emergence herbicidal action against ABUTH. The settings on record: dosage 20 g/ha, visual assessment about 3 weeks after treatment vs untreated controls. The experiment is classed as in vivo, Abutilon theophrasti. The procedure, abridged:
as §2

Experiment [6] has as its system VERPE. Put plainly: Pre-emergence herbicidal action against VERPE. The experiment is classed as in vivo, Veronica persica. The settings on record: dosage 80 g/ha. The procedure, abridged:
as §1

In another experiment the test system is LOLRI. Kind of experiment: Pre-emergence herbicidal action against LOLRI. The experiment is classed as in vivo, Lolium rigidum. Conditions: 80 g/ha. From the text:
Seeds of monocotyledonous and dicotyledonous weed plants and crop plants are laid out in sandy loam soil in wood-fiber pots and covered with soil. The compounds of the invention, formulated in the form of wettable powders (WP) or as emulsion concentrates (EC), are then applied to the surface of the covering soil in the form of an aqueous suspension or emulsion at a water application rate equivalent to 600 to 800 l/ha, with addition of 0.2% wetting agent. After the treatment, the pots are placed in a greenhouse and kept under good growth conditions for the trial plants. The damage to the test plants is scored visually after a test period of 3 weeks by comparison with untreated controls (herbicidal activity in percent (%): 100% activity=the plants have died, 0% activity=like control plants). […] The tables below illustrate, in an illustrative manner, the post-emergence herbicidal action of the compounds of the invention, the herbicidal activity being stated in percent.

Experiment [7] relates to ECHCG. Put plainly: Post-emergence herbicidal action against ECHCG. The experiment is classed as in vivo, Echinochloa crus-galli. Conditions: dosage 20 g/ha. The procedure, abridged: as §2
Another experiment concerns ALOMY. Put plainly: Pre-emergence herbicidal action against ALOMY. The experiment is classed as in vivo, Alopecurus myosuroides. The settings on record: Alopecurus myosuroides, 504 h, pre-emergence. The procedure, abridged:
as §1

For experiment [8], the system named is DIGSA. Put plainly: Pre-emergence herbicidal action against DIGSA. The experiment is classed as in vivo, Digitaria sanguinalis. Conditions: Digitaria sanguinalis, 504 h. In outline: as §1
Experiment [9] relates to VIOTR. Put plainly: Pre-emergence herbicidal action against VIOTR. The settings on record: Viola tricolor, 504 h. The experiment is classed as in vivo, Viola tricolor. The procedure, abridged:
as §1

The test system of experiment [10] is DIGSA. Put plainly: Post-emergence herbicidal action against DIGSA. The experiment is classed as in vivo, Digitaria sanguinalis. Conditions: Digitaria sanguinalis, 504 h. The procedure, abridged: as §2
Experiment [11] deals with VIOTR. Put plainly: Post-emergence herbicidal action against VIOTR. The experiment is classed as in vivo, Viola tricolor. Conditions: Viola tricolor, 504 h, 20 g/ha. The procedure, abridged: as §2
The test system of experiment [12] is VERPE. Kind of experiment: Post-emergence herbicidal action against VERPE. The settings on record: Veronica persica, 504 h, 20 g/ha. The experiment is classed as in vivo, Veronica persica. The procedure, abridged:
as §2

A further experiment has as its system AVEFA. Kind of experiment: Pre-emergence herbicidal action against AVEFA. The experiment is classed as in vivo, Avena fatua. The settings on record: Avena fatua, 504 h; 80 g/ha, pre-emergence. The procedure, abridged:
as §1

The subject of another experiment is SETVI. Kind of experiment: Pre-emergence herbicidal action against SETVI. The settings on record: Setaria viridis, 504 h. The experiment is classed as in vivo, Setaria viridis. In outline: as §1
[13] abbreviates: 80 g/ha, scored visually after 3 weeks vs untreated controls (100% = plants have died, 0% = like control plants).

Two compounds from patent publication US12655116B2, “Substituted isophthalic acid diamides” (Bayer Aktiengesellschaft, priority 2020, dated 2026) can be followed below.

As for `Cn1nnnc1NC(=O)c1ccc(C(F)F)c(C(=O)NCC2CCCO2)c1Cl` (centres unmarked) [Example 1-159], the “Pre-emergence action against AMARE in %” value in the experiment with AMARE [1] (20 g/ha, scored visually after 3 weeks vs untreated controls, 100% = plants have died, 0% = like control plants) came out at 100%; with AMARE [1] (setting [13]) it was 100%. Moreover, the “Post-emergence action against PHBPU in %” value in the experiment on PHBPU (dosage 5 g/ha) and in the experiment on PHBPU (dosage 20 g/ha) was 80% throughout. In the experiment with AMARE [2], the “Post-emergence action at 20 g/ha against AMARE in %” value worked out at 100%. The “Pre-emergence action against ECHCG in %” value in the experiment with ECHCG [3] was found to be 90%. Also, the “Pre-emergence action against ABUTH (herbicidal activity)” value in the experiment with ABUTH [4] (setting [13]) is on record as 100%. Further, the “Pre-emergence action against ABUTH (herbicidal activity in percent)” value with ABUTH [4] (dosage 20 g/ha, scored visually after 3 weeks vs untreated controls, 100% = plants have died, 0% = like control plants) is given as 80%. Besides, the “Pre-emergence action against MATIN in %” value in the experiment on MATIN (dosage 80 g/ha) is listed as 90%. Besides, in the experiment on ABUTH [5], the “Post-emergence action against ABUTH in %” value came to 80%. In the experiment on VERPE [6], the “Pre-emergence action against VERPE in %” value came out at 80%. Besides, the “Pre-emergence action against LOLRI in %” value in the experiment on LOLRI came to 80%. The “Post-emergence action against ECHCG in %” value in the experiment with ECHCG [7] is reported as 90%.
`Cn1nnnc1NC(=O)c1ccc(I)c(C(=O)NC2CC2)c1Cl` [Example 1-197]: the pest or weed control at 80 g/ha turned out to be 100% in the experiment with ALOMY (setting [13]); 100% in the experiment on AMARE [1] (Amaranthus retroflexus, 504 h, 80 g/ha, scored visually after 3 weeks vs untreated controls, 100% = plants have died, 0% = like control plants); 90% in the experiment with ECHCG [3] (Echinochloa crus-galli, 504 h); 100% with DIGSA [8] (dosage 80 g/ha); 100% in the experiment with ABUTH [4] (Abutilon theophrasti, 504 h, 80 g/ha, scored visually after 3 weeks vs untreated controls (100% = plants have died, 0% = like control plants)); 100% in the experiment on VIOTR [9] (dosage 80 g/ha). The pest or weed control at 80 g/ha is 100% in the experiment with MATIN (Tripleurospermum inodorum, 504 h, dosage 80 g/ha); 100% in the experiment on AVEFA; 100% in the experiment with SETVI (dosage 80 g/ha); 80% with LOLRI (Lolium rigidum, 504 h). The pest or weed control at 20 g/ha was found to be 100% in the experiment with ALOMY (20 g/ha, scored visually after 3 weeks, 100% = plants have died, 0% = like control plants); 100% in the experiment with AMARE [1] (Amaranthus retroflexus, 504 h, 20 g/ha, scored visually after 3 weeks vs untreated controls, 100% = plants have died, 0% = like control plants); 90% in the experiment with PHBPU (Ipomoea purpurea, 504 h, dosage 20 g/ha); 100% in the experiment with AMARE [2] (Amaranthus retroflexus, 504 h); 100% in the experiment with DIGSA [8] (dosage 20 g/ha); 100% in the experiment with ABUTH [4] (Abutilon theophrasti, 504 h, dosage 20 g/ha, scored visually after 3 weeks vs untreated controls, 100% = plants have died, 0% = like control plants, read-out: Pre-emergence action against ABUTH (herbicidal activity in percent)). The pest or weed control at 20 g/ha in the experiment on VIOTR [9] (dosage 20 g/ha) was 100%; with DIGSA [10] (20 g/ha) it was 100%; with MATIN (Tripleurospermum inodorum, 504 h, dosage 20 g/ha), 90%; in the experiment on ABUTH [5] (Abutilon theophrasti, 504 h), 100%; in the experiment on VIOTR [11], 100%; with VERPE [12], 80%. Besides, the pest or weed control at 20 g/ha came out at 100% in the experiment with SETVI (dosage 20 g/ha) and 90% in the experiment on ECHCG [7] (Echinochloa crus-galli, 504 h). In the experiment with DIGSA [10] (5 g/ha), this compound yielded a pest or weed control at 5 g/ha of 100%.
